Values of other authors as cited in paper PMC8398847, “Isavuconazole: Thermodynamic Evaluation of Processes Sublimation, Dissolution and Partition in Pharmaceutically Relevant Media” (Molecules, 2021).
Where “and” joins values, the source holds several entries; their conditions need not be identical. Equal values may be shown once.

conditions: 298.15 K; IVZ cluster; ref Table S1 [1]-[16]; cited from earlier work

Row | Molecule | sublimation Gibbs energy (Table S1) | sublimation enthalpy (Table S1)
1 | O=C(O)c1cccc(F)c1 [3-fluorobenzoic acid] | 8.22 kcal/mol | 22.4 kcal/mol
2 | N#Cc1ccc(Br)cc1 [4-Bromobenzonitrile] | 6.81 kcal/mol | 19.3 kcal/mol
3 | Oc1ccc(F)cc1 [4-Fluorophenol] | 4.76 kcal/mol | 17.7 kcal/mol
4 | Fc1ccc(-c2ccc(F)cc2)cc1 [4,4'-difluorobiphenyl] | 7.22 kcal/mol | 21.8 kcal/mol
5 | O=C(O)c1ccc(F)cc1 [4-fluorobenzoic acid] | 8.8 kcal/mol | 22.3 kcal/mol
6 | CC(O)(c1ccccc1)c1ccccc1 [1,1-diphenylethanol] | 9.35 kcal/mol | 25.1 kcal/mol
7 | CC(=O)c1ccc(F)cc1 [p-fluoroacetophenone] | 4.21 kcal/mol | 17.1 kcal/mol
8 | Fc1ccccc1-c1ccccc1F [2,2'-difluorobiphenyl] | 7.72 kcal/mol | 22.7 kcal/mol
9 | N#Cc1ccc(I)cc1 [4-Iodobenzonitrile] | 7.84 kcal/mol | 21 kcal/mol
10 | CC(O)(CS(=O)(=O)c1ccc(F)cc1)C(=O)Nc1ccc(C#N)c(C(F)(F)F)c1 (centres unmarked) [Bicalutamide] | 15.2 kcal/mol | 29.8 kcal/mol
11 | CC(C(=O)O)c1ccc(-c2ccccc2)c(F)c1 (centres unmarked) [Flurbiprofen] | 12.7 kcal/mol | 26.34 kcal/mol
12 | N#Cc1cccc(F)c1 [3-Fluorobenzonitrile] | 3.78 kcal/mol | 15.6 kcal/mol
13 | N#Cc1ccc(F)cc1 [4-Fluorobenzonitrile] | 4.21 kcal/mol | 16.2 kcal/mol
14 | O=C(O)c1ccccc1F [2-fluorobenzoic acid] | 8.48 kcal/mol | 22.6 kcal/mol
15 | CC(C)(O)c1ccccc1 [1-methyl-1-phenylethanol] | 5.26 kcal/mol | 19.7 kcal/mol
16 | N#Cc1ccc2ccccc2c1 [2-Naphthalenecarbonitrile] | 8.08 kcal/mol | 22 kcal/mol

same assay, conditions: 298.15 K; bicalutamide cluster; cited from earlier work

Row | Molecule | sublimation Gibbs energy (kJ∙mol-1, Table S2) | sublimation enthalpy (first kJ∙mol-1 column, Table S2)
17 | N#Cc1ccc(C(=O)O)cc1 [4-Cyanobenzoic acid] | 50.7 kJ/mol | 112.8 kJ/mol
18 | O=C(O)c1cccc(F)c1 [3-fluorobenzoic acid] | 34.4 kJ/mol | 93.6 kJ/mol
19 | 2-phenylcarbamoyl-3-methylquinoxaline-N-oxide | 69.2 kJ/mol | 145.1 kJ/mol
20 | CC(=O)Nc1ccc(Br)cc1 [4'-Bromoacetanilide] | 51.2 kJ/mol | 113.4 kJ/mol
21 | c1ccc(CNc2ccccc2)cc1 [N-phenyl benzylamine] | 36.9 kJ/mol | 104.4 kJ/mol
22 | Oc1ccc(F)cc1 [4-Fluorophenol] | 19.9 kJ/mol | 74.1 kJ/mol
23 | Fc1ccc(-c2ccc(F)cc2)cc1 [4,4'-difluorobiphenyl] | 30.2 kJ/mol | 91.2 kJ/mol
24 | NC(=O)c1cccc(F)c1 [3-Fluorobenzamide] | 42.5 kJ/mol | 104.1 kJ/mol
25 | O=C(O)c1cccnc1Nc1cccc(C(F)(F)F)c1 [Niflumic acid] | 61.3 kJ/mol | 130.2 kJ/mol
26 | O=C(O)c1ccc(F)cc1 [4-fluorobenzoic acid] | 36.8 kJ/mol | 93.1 kJ/mol
27 | O=C(O)c1ccccc1Nc1ccccc1 [N-phenyl-Anthranilic acid] | 58.9 kJ/mol | 126 kJ/mol
28 | O=C(O)c1cc(-c2ccc(F)cc2F)ccc1O [Diflunisal (Form A), Diflunisal] | 57.6 kJ/mol | 120.1 kJ/mol
29 | CC(=O)Nc1ccccc1C [N-(2-methylphenyl)acetamide] | 40.9 kJ/mol | 97.1 kJ/mol
30 | CC(O)(c1ccccc1)c1ccccc1 [1,1-diphenylethanol] | 39.1 kJ/mol | 105 kJ/mol
31 | Fc1ccccc1-c1ccccc1F [2,2'-difluorobiphenyl] | 32.3 kJ/mol | 95 kJ/mol
32 | NC(=O)c1ccc(N)cc1 [p-Aminobenzamide] | 61.7 kJ/mol | 131.2 kJ/mol
33 | CC(O)(CS(=O)(=O)c1ccc(F)cc1)C(=O)Nc1ccc(C#N)c(C(F)(F)F)c1 (centres unmarked) [Bicalutamide] | 63.7 kJ/mol | 124.7 kJ/mol
34 | CC(=O)Nc1ccc(C)cc1 [N-(4-methylphenyl)acetamide] | 44.5 kJ/mol | 99 kJ/mol
35 | O=C(O)c1ccccc1Nc1cccc(C(F)(F)F)c1 [Flufenamic acid] | 54.3 kJ/mol | 121.2 kJ/mol
36 | NC(=O)c1ccc(F)cc1 [4-Fluorobenzamide] | 43.2 kJ/mol | 102.8 kJ/mol
37 | CC(=O)Nc1cccc2ccccc12 [N-acetyl-1-naphthylamine] | 47.9 kJ/mol | 94 kJ/mol and 94.1 kJ/mol

Row | Molecule | sublimation Gibbs energy (kJ∙mol-1, Table S2) | sublimation enthalpy (first kJ∙mol-1 column, Table S2)
38 | CC(=O)Nc1ccc(Cl)cc1 [4'-Chloroacetanilide] | 50.1 kJ/mol | 113.8 kJ/mol
39 | CC(N)=O [Acetamide] | 40.5 kJ/mol | 99.8 kJ/mol
40 | CC(=O)Nc1ccc(O)cc1 [Paracetamol] | 60 kJ/mol | 117.9 kJ/mol
41 | NC(=O)c1ccccc1F [2-Fluorobenzamide] | 35.8 kJ/mol | 95.4 kJ/mol
42 | CC(=O)Nc1ccc(C=O)cc1 [p-acetaminobenzaldehyde] | 44.1 kJ/mol | 99.1 kJ/mol
43 | CNc1ccc(C(=O)O)cc1 [4-(methylamino)benzoic acid] | 55.3 kJ/mol | 123.9 kJ/mol
44 | CC(=O)Nc1ccccc1C(=O)O [2-(acetylamino)-Benzoic acid] | 54.4 kJ/mol | 115.5 kJ/mol
45 | CC(=O)Nc1ccccc1O [2'-Hydroxyacetanilide] | 52.8 kJ/mol | 121.8 kJ/mol
46 | CC(O)Cc1nsc(Nc2ccc(F)cc2)n1 (centres unmarked) [1-[5-(4-Fluoro-phenylamino)-[1,2,4]thiadiazol-3-yl]-propan-2-ol] | 59.1 kJ/mol | 124.8 kJ/mol
47 | CC(=O)Nc1cccc(O)c1 [3-Acetamidophenol] | 56.4 kJ/mol | 111 kJ/mol
48 | CC12CC3CC(C)(C1)CC(NS(=O)(=O)c1ccc(C(F)(F)F)cc1)(C3)C2 [N-(3,5-Dimethyl-adamantan-1-yl)-4-trifluoromethyl-benzenesulfonamide] | 49.6 kJ/mol | 107.7 kJ/mol
49 | NC(=O)c1ccccc1N [o-Aminobenzamide] | 46.1 kJ/mol | 106.8 kJ/mol
50 | O=[N+]([O-])c1cccc(F)c1 [3-Fluoronitrobenzene] | 17.1 kJ/mol | 72.3 kJ/mol
51 | Cc1ccccc1NC(=O)c1c(C)[n+]([O-])c2ccccc2[n+]1[O-] [3-methyl-N-(2-methylphenyl)-2-quinoxalinecarboxamide-1,4-dioxide] | 71.9 kJ/mol | 154.8 kJ/mol
52 | O=C(O)c1ccccc1F [2-fluorobenzoic acid] | 35.5 kJ/mol | 94.4 kJ/mol
53 | O=[N+]([O-])c1ccc(F)cc1 [4-Fluoronitrobenzene] | 18.9 kJ/mol | 70.9 kJ/mol
54 | CC(C)(O)c1ccccc1 [1-methyl-1-phenylethanol] | 22 kJ/mol | 82.3 kJ/mol
55 | Cc1cccc(Nc2ccccc2C(=O)O)c1C [Mefenamic Acid] | 59.2 kJ/mol | 136.3 kJ/mol
56 | CC(=O)NCC(=O)Nc1ccccc1 [acetylglycine anilide] | 59.9 kJ/mol | 125.4 kJ/mol
57 | NC(=O)c1cccc(N)c1 [m-Aminobenzamide] | 57.5 kJ/mol and 57.8 kJ/mol | 125.3 kJ/mol and 128.6 kJ/mol
58 | Fc1ccc(-n2cccc2)cc1 [1-(4-fluorophenyl)pyrrole] | 25.4 kJ/mol | 78.9 kJ/mol
